Source: patent US11117892B2, “Pyrrolo-pyridine derivative compound, method for preparing same, and pharmaceutical composition containing same as active ingredient for prevention or treatment of protein kinase-related diseases” (DAEGU-GYEONGBUK MEDICAL INNOVATION FOUNDATION, priority 2017, dated 2021)
Read-outs that look alike come from different tables or passages of the source.

Experiments:
Experiment in all cases: scanMAX Kinase assay panel
Assay type in all cases: binding
Conditions in all cases: read-out: % control
[1] = target: TAOK3 (Homo sapiens (Human), UniProt Q9H2K8)
Method in brief: (§1)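 Measurements came from scanMAX kinase selectivity profiling. Each value was normalised by subtracting the positive control and dividing by the span between the DMSO vehicle and the positive control, then multiplied by 100.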

[2] = target: MST4 (Homo sapiens (Human), UniProt Q9P289)
Method in brief: as §1

[3] = target: DRAK1 (Homo sapiens (Human), UniProt Q9UEE5)
Method in brief: as §1

[4] = target: ALK(L1196M) (Homo sapiens (Human), UniProt Q9UM73, L1196M)
Method in brief: as §1

[5] = target: FLT1 (Homo sapiens (Human), UniProt P17948)
Method in brief: as §1

[6] = target: NEK4 (Homo sapiens (Human), UniProt P51957)
Method in brief: as §1

[7] = target: ACVRL1 (Homo sapiens (Human), UniProt P37023)
Method in brief: as §1

[8] = target: FLT3(N841I) (Homo sapiens (Human), UniProt P36888, N841I)
Method in brief: as §1

[9] = target: TYRO3 (Homo sapiens (Human), UniProt Q06418)
Method in brief: as §1

[10] = target: ABL1(T315I)-phosphorylated (Homo sapiens (Human), UniProt P00519, T315I)
Method in brief: as §1

[11] = target: PKAC-beta (Homo sapiens (Human), UniProt P22694)
Method in brief: as §1

[12] = target: GRK1 (Homo sapiens (Human), UniProt Q15835)
Method in brief: as §1

[13] = target: ABL1(T315I)-nonphosphorylated (Homo sapiens (Human), UniProt P00519, T315I)
Method in brief: as §1

[14] = target: PIK3CA(C420R) (Homo sapiens (Human), UniProt P42336, C420R)
Method in brief: as §1

[15] = target: LZK (Homo sapiens (Human), UniProt O43283)
Method in brief: as §1

[16] = target: VEGFR2 (Homo sapiens (Human), UniProt P35968)
Method in brief: as §1

[17] = target: TLK1 (Homo sapiens (Human), UniProt Q9UKI8)
Method in brief: as §1

[18] = target: FGFR1 (Homo sapiens (Human), UniProt P11362)
Method in brief: as §1

[19] = target: PCTK1 (Homo sapiens (Human), UniProt Q00536)
Method in brief: as §1

[20] = target: KIT(D816V) (Homo sapiens (Human), UniProt P10721, D816V)
Method in brief: as §1

[21] = target: TAOK2 (Homo sapiens (Human), UniProt Q9UL54)
Method in brief: as §1

[22] = target: CAMK4 (Homo sapiens (Human), UniProt Q16566)
Method in brief: as §1

[23] = target: GSK3A (Homo sapiens (Human), UniProt P49840)
Method in brief: as §1

[24] = target: PCTK2 (Homo sapiens (Human), UniProt Q00537)
Method in brief: as §1

[25] = target: PAK6 (Homo sapiens (Human), UniProt Q9NQU5)
Method in brief: as §1

[26] = target: FGFR4 (Homo sapiens (Human), UniProt P22455)
Method in brief: as §1

[27] = target: FLT3(R834Q) (Homo sapiens (Human), UniProt P36888, R834Q)
Method in brief: as §1

[28] = target: BLK (Homo sapiens (Human), UniProt P51451)
Method in brief: as §1

[29] = target: QSK (Homo sapiens (Human), UniProt Q9Y2K2)
Method in brief: as §1

[30] = target: KIT(L576P) (Homo sapiens (Human), UniProt P10721, L576P)
Method in brief: as §1

[31] = target: TNIK (Homo sapiens (Human), UniProt Q9UKE5)
Method in brief: as §1

[32] = target: RSK1(Kin.Dom.2-C-terminal) (Homo sapiens (Human), UniProt Q15418)
Method in brief: as §1

[33] = target: PIK3CA(Q546K) (Homo sapiens (Human), UniProt P42336, Q546K)
Method in brief: as §1

[34] = target: EGFR(L861Q) (Homo sapiens (Human), UniProt P00533, L861Q)
Method in brief: as §1

[35] = target: SLK (Homo sapiens (Human), UniProt Q9H2G2)
Method in brief: as §1

[36] = target: RPS6KA5(Kin.Dom.1-N-terminal) (Homo sapiens (Human), UniProt O75582)
Method in brief: as §1

[37] = target: TRPM6 (Homo sapiens (Human), UniProt Q9BX84)
Method in brief: as §1

[38] = target: PAK1 (Homo sapiens (Human), UniProt Q13153)
Method in brief: as §1

Sequence of TAOK2 (Q9UL54 whole entry): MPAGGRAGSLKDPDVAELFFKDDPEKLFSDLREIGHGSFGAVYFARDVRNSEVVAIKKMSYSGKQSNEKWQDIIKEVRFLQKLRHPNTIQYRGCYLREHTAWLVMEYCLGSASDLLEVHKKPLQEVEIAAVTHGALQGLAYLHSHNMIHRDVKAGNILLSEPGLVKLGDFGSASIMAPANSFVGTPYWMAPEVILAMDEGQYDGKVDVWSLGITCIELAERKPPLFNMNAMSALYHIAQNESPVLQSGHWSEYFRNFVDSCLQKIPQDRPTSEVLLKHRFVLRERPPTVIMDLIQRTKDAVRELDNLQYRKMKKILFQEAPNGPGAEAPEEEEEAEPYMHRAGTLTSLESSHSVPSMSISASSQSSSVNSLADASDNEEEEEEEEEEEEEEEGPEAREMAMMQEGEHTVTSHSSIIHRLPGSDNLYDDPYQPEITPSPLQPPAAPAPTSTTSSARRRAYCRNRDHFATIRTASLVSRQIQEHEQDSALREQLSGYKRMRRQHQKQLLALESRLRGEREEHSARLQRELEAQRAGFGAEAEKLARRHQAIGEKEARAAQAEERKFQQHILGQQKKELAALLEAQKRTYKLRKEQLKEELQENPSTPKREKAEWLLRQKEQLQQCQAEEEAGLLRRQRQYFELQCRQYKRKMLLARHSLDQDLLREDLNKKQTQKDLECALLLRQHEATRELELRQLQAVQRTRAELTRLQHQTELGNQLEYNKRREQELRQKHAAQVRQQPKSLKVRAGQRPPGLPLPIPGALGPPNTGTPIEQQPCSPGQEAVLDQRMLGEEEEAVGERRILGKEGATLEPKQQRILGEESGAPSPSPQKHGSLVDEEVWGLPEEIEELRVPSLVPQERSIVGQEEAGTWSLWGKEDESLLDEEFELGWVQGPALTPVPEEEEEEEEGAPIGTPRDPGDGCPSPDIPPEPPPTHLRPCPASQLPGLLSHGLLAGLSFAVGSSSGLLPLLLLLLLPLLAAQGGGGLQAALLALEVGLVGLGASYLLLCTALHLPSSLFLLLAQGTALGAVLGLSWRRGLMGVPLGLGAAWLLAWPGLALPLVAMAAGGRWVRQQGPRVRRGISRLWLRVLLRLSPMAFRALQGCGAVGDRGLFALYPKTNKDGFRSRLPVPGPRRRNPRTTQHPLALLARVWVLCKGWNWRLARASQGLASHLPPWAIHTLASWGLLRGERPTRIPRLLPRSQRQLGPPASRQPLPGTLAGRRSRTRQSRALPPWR
Sequence of TYRO3 (Q06418 41-890): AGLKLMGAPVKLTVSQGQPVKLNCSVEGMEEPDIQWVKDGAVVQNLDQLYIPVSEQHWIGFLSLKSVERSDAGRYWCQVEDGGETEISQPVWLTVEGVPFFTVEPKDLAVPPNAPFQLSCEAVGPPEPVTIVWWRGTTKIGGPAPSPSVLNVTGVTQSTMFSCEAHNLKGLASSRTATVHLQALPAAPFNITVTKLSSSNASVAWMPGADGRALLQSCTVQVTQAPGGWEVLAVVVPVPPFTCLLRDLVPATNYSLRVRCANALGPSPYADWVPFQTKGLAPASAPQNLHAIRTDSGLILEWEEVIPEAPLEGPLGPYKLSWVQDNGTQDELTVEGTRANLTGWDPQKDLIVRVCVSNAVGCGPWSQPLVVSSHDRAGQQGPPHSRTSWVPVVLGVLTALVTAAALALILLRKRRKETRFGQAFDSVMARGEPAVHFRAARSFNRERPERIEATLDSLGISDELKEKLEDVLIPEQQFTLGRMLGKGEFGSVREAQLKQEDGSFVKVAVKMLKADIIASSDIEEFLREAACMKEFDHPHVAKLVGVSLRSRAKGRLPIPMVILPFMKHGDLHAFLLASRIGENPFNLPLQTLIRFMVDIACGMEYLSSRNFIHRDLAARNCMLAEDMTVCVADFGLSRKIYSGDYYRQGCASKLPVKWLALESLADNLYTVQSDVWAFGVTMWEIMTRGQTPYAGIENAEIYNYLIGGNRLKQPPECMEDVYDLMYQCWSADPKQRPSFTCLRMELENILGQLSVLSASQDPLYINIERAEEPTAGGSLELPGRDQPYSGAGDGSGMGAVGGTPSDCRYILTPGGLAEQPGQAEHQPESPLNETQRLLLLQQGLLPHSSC
Sequence of PCTK2 (Q00537 whole entry): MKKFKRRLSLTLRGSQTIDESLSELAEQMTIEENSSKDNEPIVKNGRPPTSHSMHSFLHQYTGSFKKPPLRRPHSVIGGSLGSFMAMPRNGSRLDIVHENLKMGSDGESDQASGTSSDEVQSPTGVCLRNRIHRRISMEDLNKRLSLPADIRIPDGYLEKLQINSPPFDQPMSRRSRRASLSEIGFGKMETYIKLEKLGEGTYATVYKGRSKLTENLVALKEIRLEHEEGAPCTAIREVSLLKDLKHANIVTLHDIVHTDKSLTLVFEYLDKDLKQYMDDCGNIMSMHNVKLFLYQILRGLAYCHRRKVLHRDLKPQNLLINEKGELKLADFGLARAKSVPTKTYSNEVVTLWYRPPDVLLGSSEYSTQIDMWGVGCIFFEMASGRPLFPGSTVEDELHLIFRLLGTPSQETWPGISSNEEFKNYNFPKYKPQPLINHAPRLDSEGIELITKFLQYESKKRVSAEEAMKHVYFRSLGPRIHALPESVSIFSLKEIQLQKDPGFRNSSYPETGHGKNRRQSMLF
Sequence of RPS6KA5(Kin.Dom.1-N-terminal) (O75582 49-318): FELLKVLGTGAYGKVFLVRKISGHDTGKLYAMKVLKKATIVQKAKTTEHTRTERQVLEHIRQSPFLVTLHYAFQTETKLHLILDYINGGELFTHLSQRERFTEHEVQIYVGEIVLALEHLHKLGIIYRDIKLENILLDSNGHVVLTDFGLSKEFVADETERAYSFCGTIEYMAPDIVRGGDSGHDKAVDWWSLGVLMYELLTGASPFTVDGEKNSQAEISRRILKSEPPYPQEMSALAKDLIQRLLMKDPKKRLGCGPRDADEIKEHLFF
Sequence of CAMK4 (Q16566 whole entry): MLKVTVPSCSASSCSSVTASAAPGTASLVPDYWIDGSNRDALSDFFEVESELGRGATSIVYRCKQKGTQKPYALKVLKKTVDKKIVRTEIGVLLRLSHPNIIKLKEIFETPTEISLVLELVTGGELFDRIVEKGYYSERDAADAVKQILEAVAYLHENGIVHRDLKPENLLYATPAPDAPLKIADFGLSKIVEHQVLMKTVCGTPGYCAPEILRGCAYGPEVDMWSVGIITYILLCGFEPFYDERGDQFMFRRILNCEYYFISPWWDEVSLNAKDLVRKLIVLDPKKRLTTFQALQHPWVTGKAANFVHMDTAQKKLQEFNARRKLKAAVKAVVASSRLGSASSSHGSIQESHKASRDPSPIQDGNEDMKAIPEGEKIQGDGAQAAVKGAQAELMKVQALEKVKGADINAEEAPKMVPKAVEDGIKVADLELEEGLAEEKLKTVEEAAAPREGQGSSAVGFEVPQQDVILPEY
Sequence of FGFR4 (P22455 22-802): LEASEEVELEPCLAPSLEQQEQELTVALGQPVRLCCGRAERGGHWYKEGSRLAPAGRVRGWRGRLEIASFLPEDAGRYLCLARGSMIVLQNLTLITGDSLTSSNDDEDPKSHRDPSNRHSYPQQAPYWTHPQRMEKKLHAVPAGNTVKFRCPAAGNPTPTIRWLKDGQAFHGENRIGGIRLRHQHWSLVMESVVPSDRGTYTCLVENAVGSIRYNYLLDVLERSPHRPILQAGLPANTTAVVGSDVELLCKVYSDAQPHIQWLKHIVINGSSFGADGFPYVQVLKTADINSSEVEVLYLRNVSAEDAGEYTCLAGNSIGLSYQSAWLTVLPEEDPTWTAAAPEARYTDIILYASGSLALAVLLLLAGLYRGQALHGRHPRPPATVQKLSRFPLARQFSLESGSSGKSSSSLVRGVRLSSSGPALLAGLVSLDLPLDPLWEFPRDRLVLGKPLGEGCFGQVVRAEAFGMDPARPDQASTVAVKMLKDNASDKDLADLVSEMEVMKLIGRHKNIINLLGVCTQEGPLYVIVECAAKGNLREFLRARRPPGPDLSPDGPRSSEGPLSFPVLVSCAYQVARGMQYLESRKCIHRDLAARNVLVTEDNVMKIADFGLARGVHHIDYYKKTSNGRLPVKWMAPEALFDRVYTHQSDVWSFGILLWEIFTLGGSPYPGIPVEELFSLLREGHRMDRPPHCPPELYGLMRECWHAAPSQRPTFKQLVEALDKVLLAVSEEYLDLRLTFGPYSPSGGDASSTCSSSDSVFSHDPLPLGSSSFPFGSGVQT
Sequence of BLK (P51451 whole entry): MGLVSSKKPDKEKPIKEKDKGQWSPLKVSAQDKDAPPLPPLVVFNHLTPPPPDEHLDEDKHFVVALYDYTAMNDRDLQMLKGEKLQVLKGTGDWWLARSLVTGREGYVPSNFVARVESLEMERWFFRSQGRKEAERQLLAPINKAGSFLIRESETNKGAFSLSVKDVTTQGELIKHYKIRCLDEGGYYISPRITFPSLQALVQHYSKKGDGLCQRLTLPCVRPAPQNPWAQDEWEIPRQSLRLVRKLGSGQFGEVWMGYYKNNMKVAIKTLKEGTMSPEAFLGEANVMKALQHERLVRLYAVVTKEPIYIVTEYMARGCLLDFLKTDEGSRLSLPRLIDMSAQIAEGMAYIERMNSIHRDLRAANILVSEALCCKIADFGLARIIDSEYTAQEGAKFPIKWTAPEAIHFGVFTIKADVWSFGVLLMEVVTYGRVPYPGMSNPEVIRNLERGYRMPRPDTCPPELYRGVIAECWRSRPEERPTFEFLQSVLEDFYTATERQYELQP
Sequence of DRAK1 (Q9UEE5 whole entry): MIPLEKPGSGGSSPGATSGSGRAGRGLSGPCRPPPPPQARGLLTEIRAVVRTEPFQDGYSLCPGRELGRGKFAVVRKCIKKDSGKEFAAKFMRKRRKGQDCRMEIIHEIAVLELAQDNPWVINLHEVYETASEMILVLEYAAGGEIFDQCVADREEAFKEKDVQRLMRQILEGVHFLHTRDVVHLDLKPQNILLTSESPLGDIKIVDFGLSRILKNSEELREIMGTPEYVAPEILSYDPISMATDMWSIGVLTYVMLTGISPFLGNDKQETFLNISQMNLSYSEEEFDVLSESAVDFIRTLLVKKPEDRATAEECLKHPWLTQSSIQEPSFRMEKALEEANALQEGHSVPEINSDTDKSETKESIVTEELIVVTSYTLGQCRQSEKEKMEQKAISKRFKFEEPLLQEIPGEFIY

| SMILES | remaining binding at 1 µM [1] | remaining binding at 1 µM [2] | remaining binding at 1 µM [3] | remaining binding at 1 µM [4] | remaining binding at 1 µM [5] | remaining binding at 1 µM [6] | remaining binding at 1 µM [7] | remaining binding at 1 µM [8] | remaining binding at 1 µM [9] | remaining binding at 1 µM [10] | remaining binding at 1 µM [11] | remaining binding at 1 µM [12] | remaining binding at 1 µM [13] | remaining binding at 1 µM [14] | remaining binding at 1 µM [15] | remaining binding at 1 µM [16] | remaining binding at 1 µM [17] | remaining binding at 1 µM [18] | remaining binding at 1 µM [19] | remaining binding at 1 µM [20] | further results |
| --- | --- | --- | --- | --- | --- | --- | --- | --- | --- | --- | --- | --- | --- | --- | --- | --- | --- | --- | --- | --- | --- |
| CCNc1cc(Nc2ccc(C(=O)N3CCC(N4CCOCC4)CC3)cc2OC)nc2[nH]cc(C(F)(F)F)c12 [Example 57, (4-((4-(ethylamino)-3-(trifluoromethyl)-1H-pyrrolo[2,3-b]pyridin-6-yl)amino)-3-methoxyphenyl) (4-morpholinopiperidin-1-yl)methanone] | 100% | 100% | 67% | 14% | 94% | 99% | 89% | 85% | 96% | 96% | 92% | 94% | 100% | 100% | 100% | 95% | 73% | 87% | 83% | 83% | remaining binding at 1 µM [21]: 85%; remaining binding at 1 µM [22]: 88%; remaining binding at 1 µM [23]: 90%; remaining binding at 1 µM [24]: 98%; remaining binding at 1 µM [25]: 78%; remaining binding at 1 µM [26]: 92%; remaining binding at 1 µM [27]: 100%; remaining binding at 1 µM [28]: 73%; remaining binding at 1 µM [29]: 87%; remaining binding at 1 µM [30]: 100%; remaining binding at 1 µM [31]: 94%; remaining binding at 1 µM [32]: 77%; remaining binding at 1 µM [33]: 100%; remaining binding at 1 µM [34]: 94%; remaining binding at 1 µM [35]: 80%; remaining binding at 1 µM [36]: 100%; remaining binding at 1 µM [37]: 97%; remaining binding at 1 µM [38]: 73% |
| CCNc1cc(Nc2ccc(C(=O)N3CCC(N4CCOCC4)CC3)cc2OC)nc2[nH]cc(C#N)c12 [Example 18, 4-(ethylamino)-6-((2-methoxy-4-(4-morpholinopiperidine-1-carbonyl)phenyl)amino)-1H-pyrrolo[2,3-b]pyridine-3-carbonitrile] | 94% | 81% | 56% | 13% | 46% | 86% | 80% | 89% | 80% | 100% | 66% | 81% | 96% | 87% | 100% | 63% | 100% | 87% | 98% | 82% | remaining binding at 1 µM [21]: 77%; remaining binding at 1 µM [22]: 76%; remaining binding at 1 µM ([23]; GSK3A, 1 uM): 100%; remaining binding at 1 µM [24]: 100%; remaining binding at 1 µM [25]: 98%; remaining binding at 1 µM [26]: 80%; remaining binding at 1 µM [27]: 92%; remaining binding at 1 µM [28]: 99%; remaining binding at 1 µM [29]: 92%; remaining binding at 1 µM [30]: 77%; remaining binding at 1 µM [31]: 89%; remaining binding at 1 µM [32]: 64%; remaining binding at 1 µM [33]: 100%; remaining binding at 1 µM [34]: 85%; remaining binding at 1 µM [35]: 95%; remaining binding at 1 µM [36]: 100%; remaining binding at 1 µM [37]: 87%; remaining binding at 1 µM [38]: 92% |
